Measurements as given in ChEMBL document CHEMBL3400064, “Synthesis and biological evaluation of 2-arylbenzimidazoles targeting Leishmania donovani” (Bioorg Med Chem Lett, 2015).

What was measured:
Leishmania donovani [1] = assay: Antileishmanial activity against axenic amastigote Leishmania donovani MHOM/SD/1962/1S-Cl2d assessed as inhibition of parasite growth after 24 hrs at 50 uM by alamarBlue assay; assay type: functional
Leishmania donovani [2] = assay: Antileishmanial activity against axenic amastigote Leishmania donovani MHOM/SD/1962/1S-Cl2d assessed as inhibition of parasite growth after 24 hrs at 15 uM by alamarBlue assay; assay type: functional
Leishmania donovani [3] = assay: Antileishmanial activity against axenic amastigote Leishmania donovani MHOM/SD/1962/1S-Cl2d assessed as inhibition of parasite growth after 24 hrs at 5 uM by alamarBlue assay; assay type: functional
[4] = Cytotoxicity against mouse NIH/3T3 cells assessed as viability at 15 uM after 48 hrs by alamarBlue assay; assay type: cell-based, NIH3T3; conditions: read-out: Activity
Leishmania donovani [5] = assay: Antileishmanial activity against Leishmania donovani MHOM/SD/1962/1S-Cl2d infected THP1 cells assessed as inhibition of intracellular […] amastigote at 5 uM after 48 hrs at 50 uM by Bright-Glo luciferase assay; assay type: functional, THP-1
[6] = Cytotoxicity against mouse NIH/3T3 cells assessed as viability after 48 hrs by alamarBlue assay; assay type: cell-based; conditions: NIH3T3, 48 h
Leishmania donovani [7] = assay: Antileishmanial activity against Leishmania donovani MHOM/SD/1962/1S-Cl2d infected THP1 cells assessed as inhibition of intracellular […] amastigote after 48 hrs at 50 uM by Bright-Glo luciferase assay; assay type: functional, organism-based; conditions: THP-1, 48 h

Row | SMILES | inhibition at 50 µM (Leishmania donovani [1]) [%] | inhibition at 15 µM (Leishmania donovani [2]) [%] | inhibition at 5 µM (Leishmania donovani [3]) [%] | viability at 48 h, 15 µM [4] [%] | inhibition (INH) (Leishmania donovani [5]) [%] | IC50 [6] [µM] | IC50 (Leishmania donovani [7]) [µM]
1 | CC(=O)Nc1cccc(-c2nc3ccccc3[nH]2)c1 | 56 | 21 | 20 | – | – | – | –
2 | Cn1cccc1C(=O)Nc1cccc(-c2nc3ccccc3[nH]2)c1 | 33 | – | – | – | – | – | –
3 | O=C(Nc1cccc(-c2nc3ccccc3[nH]2)c1)c1cscn1 | 45 | – | – | – | – | – | –
4 | Cc1cccc(C(=O)Nc2cccc(-c3nc4ccccc4[nH]3)c2)c1 | 59 | 52 | 26 | – | – | – | –
5 | O=C(Nc1cccc(-c2nc3ccccc3[nH]2)c1)c1cccc(C(F)(F)F)c1 | 83 | 68 | 17 | – | – | – | –
6 | O=C(Nc1cccc(-c2nc3ccccc3[nH]2)c1)c1cccc(Cl)c1 | 57 | 60 | 26 | – | – | – | –
7 | COc1cccc(C(=O)Nc2cccc(-c3nc4ccccc4[nH]3)c2)c1 | 49 | – | – | – | – | – | –
8 | COC(=O)c1cccc(C(=O)Nc2cccc(-c3nc4ccccc4[nH]3)c2)c1 | 100 | 74 | 18 | – | – | – | –
9 | Cc1ccccc1C(=O)Nc1cccc(-c2nc3ccccc3[nH]2)c1 | 55 | 47 | 22 | – | – | – | –
10 | O=C(Nc1cccc(-c2nc3ccccc3[nH]2)c1)c1ccccc1C(F)(F)F | 82 | 73 | 22 | – | – | – | –
11 | COc1ccccc1C(=O)Nc1cccc(-c2nc3ccccc3[nH]2)c1 | 75 | 27 | 23 | – | – | – | –
12 | CC(C)(C)C(=O)Nc1cccc(-c2nc3ccccc3[nH]2)c1 | 54 | 44 | 27 | – | – | – | –
13 | O=C(Nc1cccc(-c2nc3ccccc3[nH]2)c1)C1CCCCC1 | 68 | 61 | 41 | 23.8 | 19.8 | 22.2 | 8.8
14 | Cc1ccc2[nH]c(-c3cccc(NC(=O)c4cccs4)c3)nc2c1 | 77 | 50 | 36 | 14.1 | 4.1 | 16.7 | 10.5
15 | O=C(Nc1cccc(-c2nc3cc(Cl)ccc3[nH]2)c1)c1cccs1 | 80 | 57 | 11 | – | – | – | –
16 | Cc1cccc2[nH]c(-c3cccc(NC(=O)c4cccs4)c3)nc12 | 83 | 56 | 32 | 5.3 | 46.4 | > 300 | 17.8
17 | Cc1c(NC(=O)c2cccs2)cccc1-c1nc2ccccc2[nH]1 | 31 | – | – | – | – | – | –
18 | COc1ccc(-c2nc3ccccc3[nH]2)cc1NC(=O)c1cccs1 | 38 | – | – | – | – | – | –
19 | Cn1c(-c2cccc(NC(=O)c3cccs3)c2)nc2ccccc21 | 74 | 56 | 30 | -12.9 | 27.7 | 61.3 | 22.1

Row | SMILES | inhibition at 50 µM (Leishmania donovani [1]) [%] | inhibition at 15 µM (Leishmania donovani [2]) [%] | inhibition at 5 µM (Leishmania donovani [3]) [%] | viability at 48 h, 15 µM [4] [%] | inhibition (INH) (Leishmania donovani [5]) [%] | IC50 [6] [µM] | IC50 (Leishmania donovani [7]) [µM]
20 | O=S(=O)(Nc1cccc(-c2nc3ccccc3[nH]2)c1)c1ccccc1 | 52 | 30 | 0 | – | – | – | –
21 | O=C(Nc1cccc(-c2nc3ccccc3o2)c1)c1cccs1 | 34 | – | – | – | – | – | –
22 | O=C(Nc1ccc(-c2nc3ccccc3[nH]2)cc1)c1cccs1 | 22 | – | – | – | – | – | –
23 | O=C(Nc1cccc(-c2nc3ccccc3[nH]2)c1)c1ccsc1 | 83 | 67 | 17 | – | – | – | –
24 | O=C(Cc1cccs1)Nc1cccc(-c2nc3ccccc3[nH]2)c1 | 49 | – | – | – | – | – | –
25 | O=C(Nc1cccc(-c2nc3ccccc3[nH]2)c1)c1ccco1 | 43 | – | – | – | – | – | –
26 | O=C(Nc1cccc(-c2nc3ccccc3[nH]2)c1)c1ccoc1 | 80 | 39 | 19 | – | – | – | –
27 | O=C(Nc1cccc(-c2nc3ccccc3[nH]2)c1)c1ccccn1 | 57 | 35 | 19 | – | – | – | –
28 | O=C(Nc1cccc(-c2nc3ccccc3[nH]2)c1)c1ccccc1F | 74 | 37 | 24 | – | – | – | –
29 | O=C(Nc1cccc(-c2nc3ccccc3[nH]2)c1)c1ccccc1 | 56 | 43 | 17 | – | – | – | –
30 | CCCCC(=O)Nc1cccc(-c2nc3ccccc3[nH]2)c1 | 82 | 67 | 15 | – | – | – | –
31 | O=C(Nc1cccc(-c2nc3ccccc3[nH]2)c1)C1CCCC1 | 87 | 76 | 22 | – | – | – | –
32 | O=C(Nc1ccccc1)Nc1cccc(-c2nc3ccccc3[nH]2)c1 | 84 | 73 | 13 | – | – | – | –
33 | O=C(Nc1cccc(-c2nc3ccccc3[nH]2)c1)NC1CCCCC1 | 94 | 90 | 24 | – | – | – | –
34 | O=C(Nc1ccccc1)Nc1ccccc1-c1nc2ccccc2[nH]1 | 67 | 16 | 12 | – | – | – | –
35 | O=C(Nc1ccccc1-c1nc2ccccc2[nH]1)NC1CCCCC1 | 88 | 65 | 36 | -4.4 | 22.2 | 42.2 | 7.6
36 | O=C(Nc1ccccc1)c1cccc(-c2nc3ccccc3[nH]2)c1 | 87 | 57 | 8 | – | – | – | –
37 | O=C(Nc1ccccc1-c1nc2ccccc2[nH]1)c1cccs1 | 51 | 26 | 26 | – | – | – | –
38 | O=C(Nc1cccc(-c2cc3ccccc3[nH]2)c1)c1cccs1 | 86 | 33 | 16 | – | – | – | –

Row | SMILES | inhibition at 50 µM (Leishmania donovani [1]) [%] | inhibition at 15 µM (Leishmania donovani [2]) [%] | inhibition at 5 µM (Leishmania donovani [3]) [%] | viability at 48 h, 15 µM [4] [%] | inhibition (INH) (Leishmania donovani [5]) [%] | IC50 [6] [µM] | IC50 (Leishmania donovani [7]) [µM]
39 | CCn1c(-c2cccc(NC(=O)c3cccs3)c2)nc2ccccc21 | 87 | 81 | 24 | – | – | – | –
40 | CCCn1c(-c2cccc(NC(=O)c3cccs3)c2)nc2ccccc21 | 86 | 70 | 25 | – | – | – | –
41 | CN(C(=O)c1cccs1)c1cccc(-c2nc3ccccc3[nH]2)c1 | 40 | 21 | 3 | – | – | – | –
42 | O=C(Cc1cccs1)Nc1cccc(-c2ncc[nH]2)c1 | 0 | – | – | – | – | – | –
43 | CCc1ccccc1C(=O)Nc1cccc(-c2nc3ccccc3[nH]2)c1 | 88 | 52 | 21 | – | – | – | –
44 | O=C(Nc1cccc(-c2nc3ccccc3[nH]2)c1)c1ccccc1Cl | 79 | 55 | 23 | – | – | – | –
45 | O=C(O)c1cccc(C(=O)Nc2cccc(-c3nc4ccccc4[nH]3)c2)c1 | 0 | – | – | – | – | – | –
46 | COc1ccc(C(=O)Nc2cccc(-c3nc4ccccc4[nH]3)c2)cc1 | 64 | 52 | 35 | 54.1 | – | – | –
47 | O=C(Nc1cccc(-c2nc3ccccc3[nH]2)c1)c1ccc(F)cc1 | 69 | 50 | 32 | -11.9 | 16 | 15.4 | 23.4
48 | O=C(Nc1cccc(-c2nc3ccccc3[nH]2)c1)c1ccc(Cl)cc1 | 63 | 41 | 27 | – | – | – | –
49 | O=C(Nc1cccc(-c2nc3ccccc3[nH]2)c1)c1ccc(-c2ccccc2)cc1 | 96 | 80 | 41 | 88.7 | – | – | –
50 | Cc1cc(C)cc(C(=O)Nc2cccc(-c3nc4ccccc4[nH]3)c2)c1 | 88 | 56 | 22 | – | – | – | –
51 | Cc1ccc(C)c(C(=O)Nc2cccc(-c3nc4ccccc4[nH]3)c2)c1 | 78 | 28 | 15 | – | – | – | –
52 | COc1cc(OC)cc(C(=O)Nc2cccc(-c3nc4ccccc4[nH]3)c2)c1 | 83 | 58 | 32 | – | – | – | –
53 | O=C(Nc1cccc(-c2nc3ccccc3[nH]2)c1)c1cc(Cl)cc(Cl)c1 | 97 | 44 | 28 | – | – | – | –
54 | O=C(Nc1cccc(-c2nc3ccccc3[nH]2)c1)c1cc(Br)cc(Br)c1 | 72 | 55 | 29 | – | – | – | –
55 | O=C(Nc1cccc(-c2nc3ccccc3[nH]2)c1)c1cccs1 | 66 | 48 | 39 | -0.6 | 21.7 | 15 | 25.1
56 | Cc1ccc(C(=O)Nc2cccc(-c3nc4ccccc4[nH]3)c2)cc1 | 82 | 71 | 23 | – | – | – | –
